# Read-outs that look alike come from different tables or passages of the source.
# Legend:
# [1] = test system: GSK-3 dependent Tau phosphorylation; type: cell-based, human
# β-catenin [2] = type: cell-based, mouse
# c-myc promoter = type: cell-based, human
# [3] = test system: HCT116 human colon cancer cell; type: cell-based
# SNU475 (Axin mutant) = type: cell-based, human; settings: read-out: SNU475 (Axin mutant) GI50; 96h
# PP2A = type: biochemical
# Zebrafish embryos = type: in vivo; settings: added at the 16-cell stage
# β-catenin [4] = type: cell-based, mouse; remark: listed apart in the source
# Tyrosine Phosphatase = type: biochemical
# LEF-1 mRNA = type: cell-based, human
# free β-catenin [5] = type: cell-based, human
# PP1 = type: biochemical
# CCD841Co (Control) = type: cell-based, human; settings: read-out: CCD841Co (Control) GI50; 96h; >> = no growth inhibition at the highest concentration tested
# [6] = test system: U2OS GFP-β-catenin human osteosarcoma cells; type: cell-based
# SW480 (APC mutant) = type: cell-based, human; settings: read-out: SW480 (APC mutant) GI50; 72h
# recombinant GSK3 = type: biochemical
# survivin promoter = type: cell-based, human
# Xenopus laevis embryos = type: in vivo; settings: added at the 4-16 cell stage
# [7] = test system: TCF-dependent transcription; type: cell-based, human
# [8] = test system: TCF-dependent transcription; type: cell-based, human; settings: read-out: Reporter IC50; 7dF3 reporter activity
# free β-catenin [9] = type: cell-based, human; settings: SW480 cells
# HT29 (APC mutant) = type: cell-based, human; settings: read-out: HT29 (APC mutant) GI50; 72h
# [10] = test system: TCF-dependent transcription; type: cell-based, human; remark: listed apart in the source
# [11] = test system: HCT116 (oncogenic β-catenin); type: cell-based, human; settings: read-out: HCT116 (oncogenic β-catenin) GI50; 72h
substance,measurement,setting,value
"6-bromoindirubin-3′-oxime [BIO, reference compound]",GSK-3 dependent Tau phosphorylation on Thr-181,[1]; HEK293,reduce GSK-3 dependent Tau phosphorylation on Thr-181
CCT031374,time to increased β-catenin degradation (pulse chase),β-catenin [2],≤ 10 min
same,activity against c-myc promoter luciferase reporter,c-myc promoter,showed activity
same,apoptosis shown by caspase 3 activity,[3],inducing apoptosis
same,caspase activity relative to the other compounds,[3],almost two times more caspase activity than the other compounds
same,GI50,SNU475 (Axin mutant),9.6 µM
same,PP2A enzyme activity,PP2A,no activity
same,effect on Zebrafish embryo development,Zebrafish embryos,did not show clear responses
same,BIO-induced accumulation / levels of β-catenin,β-catenin [4],prevented BIO-induced accumulation of β-catenin
same,degradation of endogenous wild-type β-catenin stabilized by BIO,β-catenin [4],increased the degradation
same,degradation of β-catenin stabilized by Wnt-3A and LiCl,β-catenin [4],resistant to degradation
same,degradation of β-catenin stabilized with MG132,β-catenin [4],not degraded
same,nuclear and cytosolic β-catenin pools,β-catenin [4],reduction in both nuclear and cytosolic β-catenin pools
same,time to reduce levels of BIO-stabilized β-catenin,β-catenin [4],≤ 60 min
same,β-catenin N-terminal phosphorylation,β-catenin [4],did not increase β-catenin N-terminal phosphorylation
same,β-catenin degradation products characteristic of calpain-induced proteolysis,β-catenin [4],failed to induce β-catenin degradation products
same,Tyrosine Phosphatase enzyme activity,Tyrosine Phosphatase,no activity
same,endogenous LEF-1 mRNA levels,LEF-1 mRNA,showed activity against endogenous LEF-1 mRNA levels
same,free β-catenin levels,free β-catenin [5],blocked free β-catenin levels
same,reversal of the BIO block of Tau phosphorylation,"[1]; HEK293, BIO plus 20μM CCT031374",largely failed to reduce the BIO block of Tau phosphorylation
same,PP1 enzyme activity,PP1,no activity
same,GI50,CCD841Co (Control),> 44 µM
same,formation of GFP-β-catenin aggregates,[6],induced formation of GFP-β-catenin aggregates
same,GI50,SW480 (APC mutant),13.2 µM
same,inhibition of recombinant GSK3,recombinant GSK3,did not inhibit
same,activity against survivin promoter luciferase reporter,survivin promoter,showed activity
same,effect on Xenopus embryo development,Xenopus laevis embryos,did not show clear responses
same,TCF-dependent transcription induced by stabilized β-catenin (N-terminal deletion of 89 amino acids),[7],blocked TCF-dependent transcription
same,IC50,[8],6.1 µM
same,free β-catenin levels,free β-catenin [9],not altered
same,GI50,HT29 (APC mutant),11.5 µM
same,TCF-dependent transcription (Topflash),[10],reduced TCF-dependent transcription
same,GI50,[11],13.9 µM

# — article PMC2912498 (Cancer research, 2010)
